From ChEMBL document CHEMBL1146393, “Coriaheptocins A and B, the First Heptahydroxylated Acetogenins, Isolated from the Roots of Annona coriacea 1” (1997)
≈ marks a conversion by molar mass, not a printed value.

Tested on: KB
Assay: Cytotoxicity against human KB cells
Format: functional
Details: read-out: ED50 (the source's name)

In order of falling EC50:
1. CCCCCCCCCCCC[C@@H](O)[C@H](O)CC[C@H](O)C[C@@H](O)C[C@H](O)[C@@H]1CC[C@@H]([C@H](O)CC[C@@H](O)CC2=C[C@H](C)OC2=O)O1 [CORIAHEPTOCIN A]  0.63 µg/mL (≈ 0.977 µM)
2. CCCCCCCCCCCC[C@@H](O)[C@H](O)CC[C@H](O)C[C@@H](O)C[C@H](O)[C@@H]1CC[C@H]([C@H](O)CC[C@@H](O)CC2=C[C@H](C)OC2=O)O1 [CORIAHEPTOCIN B]  0.18 µg/mL (≈ 0.279 µM)
3. CC(=O)O[C@H]1C(=O)[C@@]2(C)[C@H]([C@H](OC(=O)c3ccccc3)[C@]3(O)C[C@H](OC(=O)[C@H](O)[C@@H](NC(=O)c4ccccc4)c4ccccc4)C(C)=C1C3(C)C)[C@]1(OC(C)=O)CO[C@@H]1C[C@@H]2O [PACLITAXEL]  0.02 µg/mL (≈ 0.0234 µM)
